From patent US20240092790A1, “DIHYDROFUROPYRIDINE DERIVATIVES AS RHO- KINASE INHIBITORS” (CHIESI FARMACEUTICI S.P.A., priority 2020, published 2024) come the findings set out here.

Each structure is given as a SMILES string. Where only a bound is given, the exact number is not on record here.

Common to all, as to type: biochemical
For assay [1], the target named is ROCK1 (Homo sapiens, UniProt Q13464). The assay can be described thus: In vitro inhibitory activity assay ROCK1 (ADP-Glo). Conditions: ATP 200 μM, Cheng-Prusoff; read-out: ROCK 1 (Ki, range of activity). In outline: (§1)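 ROCK1 or ROCK2 preincubated 30 min with compound (1% DMSO) at 25 °C, then run 1 h with 2.5 μM myelin basic protein and 200 μM ATP in Tris pH 7.5/MgCl2 buffer. ADP detected by ADP-Glo luminescence; IC50 from variable-slope fit, converted to Ki by Cheng–Prusoff.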
Chain of ROCK1 (Q13464 whole entry): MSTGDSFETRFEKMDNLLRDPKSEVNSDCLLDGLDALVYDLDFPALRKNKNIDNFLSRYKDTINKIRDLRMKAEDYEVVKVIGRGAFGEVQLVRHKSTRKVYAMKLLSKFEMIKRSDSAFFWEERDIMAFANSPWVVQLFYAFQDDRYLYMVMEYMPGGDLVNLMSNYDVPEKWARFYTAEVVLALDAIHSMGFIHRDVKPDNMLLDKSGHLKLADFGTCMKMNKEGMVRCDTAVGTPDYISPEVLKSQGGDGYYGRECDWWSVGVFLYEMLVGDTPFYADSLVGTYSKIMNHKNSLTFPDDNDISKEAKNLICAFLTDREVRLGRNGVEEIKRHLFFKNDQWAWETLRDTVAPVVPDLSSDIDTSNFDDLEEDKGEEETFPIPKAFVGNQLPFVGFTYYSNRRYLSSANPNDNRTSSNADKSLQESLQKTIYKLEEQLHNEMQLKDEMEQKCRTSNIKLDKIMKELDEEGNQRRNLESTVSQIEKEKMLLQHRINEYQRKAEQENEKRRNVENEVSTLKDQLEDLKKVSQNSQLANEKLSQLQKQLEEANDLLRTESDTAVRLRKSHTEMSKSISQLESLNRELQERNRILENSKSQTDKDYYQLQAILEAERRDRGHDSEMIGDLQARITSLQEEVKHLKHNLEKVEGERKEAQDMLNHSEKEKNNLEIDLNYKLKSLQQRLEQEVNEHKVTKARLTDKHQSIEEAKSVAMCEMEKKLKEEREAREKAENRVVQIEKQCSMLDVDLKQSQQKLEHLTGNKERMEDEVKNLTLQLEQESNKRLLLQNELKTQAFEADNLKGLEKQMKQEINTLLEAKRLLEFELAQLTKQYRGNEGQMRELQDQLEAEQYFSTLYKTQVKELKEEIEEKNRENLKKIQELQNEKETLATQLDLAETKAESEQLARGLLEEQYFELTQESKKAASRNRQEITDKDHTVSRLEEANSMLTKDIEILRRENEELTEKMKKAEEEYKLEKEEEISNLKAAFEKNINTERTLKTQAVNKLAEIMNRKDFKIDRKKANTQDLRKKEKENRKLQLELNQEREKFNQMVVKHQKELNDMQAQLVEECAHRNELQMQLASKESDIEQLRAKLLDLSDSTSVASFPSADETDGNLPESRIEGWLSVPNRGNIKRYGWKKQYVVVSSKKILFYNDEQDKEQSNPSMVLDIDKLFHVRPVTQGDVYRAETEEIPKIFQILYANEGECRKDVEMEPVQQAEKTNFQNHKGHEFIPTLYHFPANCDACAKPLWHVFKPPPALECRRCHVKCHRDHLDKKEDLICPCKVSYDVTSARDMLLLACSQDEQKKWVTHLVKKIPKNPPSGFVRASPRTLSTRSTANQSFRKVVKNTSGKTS
Background: In ADP-Glo the light output rises with the ADP produced.

In assay [2] the target is ROCK2 (Homo sapiens, UniProt O75116). Description: In vitro inhibitory activity assay ROCK2 (ADP-Glo). Particulars: ATP 200 μM, Cheng-Prusoff; read-out: ROCK2 (Ki, range of activity). In outline:
as §1

Assay [3] has as its target PKA (Homo sapiens, UniProt P17612). Description: In vitro inhibitory activity assay for PKA (ADP-Glo), reported as selectivity ratio vs ROCK2. Conditions: Ki value for PKA divided by Ki value of ROCK2. The procedure, abridged: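 ADP-Glo PKA assay at 25° C in 40 mM Tris pH7.5, 20 mM MgCl2, 0.1 mg/ml BSA, 50 μM DTT, 260 μM kemptide, 1% DMSO. Compound preincubated 30 mins with enzyme, then 30 minute reaction at 10 μM ATP final; luminescence read. IC50 from sigmoidal fit, Ki via Cheng-Prusoff, reported as selectivity ratio vs ROCK-2.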

Chain of ROCK2 (O75116 whole entry): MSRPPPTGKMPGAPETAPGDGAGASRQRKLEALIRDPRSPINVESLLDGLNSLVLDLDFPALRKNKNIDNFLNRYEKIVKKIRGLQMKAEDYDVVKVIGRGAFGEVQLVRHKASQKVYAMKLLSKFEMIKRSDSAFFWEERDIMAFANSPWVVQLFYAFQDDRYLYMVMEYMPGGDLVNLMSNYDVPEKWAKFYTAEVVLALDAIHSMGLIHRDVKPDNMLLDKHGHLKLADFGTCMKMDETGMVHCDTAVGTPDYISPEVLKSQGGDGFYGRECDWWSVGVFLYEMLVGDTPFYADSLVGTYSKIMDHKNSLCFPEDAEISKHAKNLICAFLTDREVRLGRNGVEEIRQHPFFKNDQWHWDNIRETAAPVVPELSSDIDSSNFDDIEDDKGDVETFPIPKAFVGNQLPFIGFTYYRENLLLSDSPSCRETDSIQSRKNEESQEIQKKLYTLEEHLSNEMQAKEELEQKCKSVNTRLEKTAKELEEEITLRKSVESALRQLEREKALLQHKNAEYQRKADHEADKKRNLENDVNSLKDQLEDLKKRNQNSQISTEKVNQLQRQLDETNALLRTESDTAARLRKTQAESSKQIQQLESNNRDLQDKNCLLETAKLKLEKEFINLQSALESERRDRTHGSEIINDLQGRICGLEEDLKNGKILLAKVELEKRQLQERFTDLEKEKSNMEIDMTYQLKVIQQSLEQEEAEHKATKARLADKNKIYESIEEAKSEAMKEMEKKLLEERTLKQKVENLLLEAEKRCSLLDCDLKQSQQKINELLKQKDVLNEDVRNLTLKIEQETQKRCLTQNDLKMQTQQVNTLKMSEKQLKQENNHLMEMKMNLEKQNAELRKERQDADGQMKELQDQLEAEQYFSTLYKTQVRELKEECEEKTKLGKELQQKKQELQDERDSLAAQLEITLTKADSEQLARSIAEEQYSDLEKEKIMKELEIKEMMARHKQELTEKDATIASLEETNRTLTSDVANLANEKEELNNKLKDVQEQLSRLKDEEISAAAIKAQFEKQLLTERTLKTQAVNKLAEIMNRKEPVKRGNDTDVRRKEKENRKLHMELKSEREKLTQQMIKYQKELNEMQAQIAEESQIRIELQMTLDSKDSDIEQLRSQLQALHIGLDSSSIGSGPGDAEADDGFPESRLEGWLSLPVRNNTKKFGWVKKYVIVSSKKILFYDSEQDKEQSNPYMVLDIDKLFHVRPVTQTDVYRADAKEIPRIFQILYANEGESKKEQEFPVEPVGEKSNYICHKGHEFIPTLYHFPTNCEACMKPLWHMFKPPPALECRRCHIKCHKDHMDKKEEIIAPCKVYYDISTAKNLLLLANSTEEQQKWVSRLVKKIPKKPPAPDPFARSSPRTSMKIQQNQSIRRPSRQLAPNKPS

As to `Nc1nccc(-c2cnc(NCc3ccc(F)c(C(=O)NC4CCOCC4)c3)c3c2OCC3)n1` [Example 58, 5-(((7-(2-Aminopyrimidin-4-yl)-2,3-dihydrofuro[3,2-c]pyridin-4-yl)amino)methyl)-2-fluoro-N-(tetrahydro-2H-pyran-4-yl)benzamide], the Ki in assay [1] was 3 to 30 nM; in assay [2], ≤ 3 nM. Also, in assay [3], the “Ratio (PKA/ROCK2)” value was “*** (ratio≥10)”.
On to `CNC(=O)c1cc(F)cc(CNc2ncc(-c3ccnc(N)n3)c3c2CCO3)c1` [Example 59, 3-(((7-(2-Aminopyrimidin-4-yl)-2,3-dihydrofuro[3,2-c]pyridin-4-yl)amino)methyl)-5-fluoro-N-methylbenzamide], for which the Ki in assay [1] and in assay [2] was ≤ 3 nM each time. In addition, the “Ratio (PKA/ROCK2)” value in assay [3] is listed as “*** (ratio≥10)”.
Turning to `COCCCNC(=O)c1cc(F)cc(CNc2ncc(-c3ccnc(N)n3)c3c2CCO3)c1` [Example 60, 3-(((7-(2-Aminopyrimidin-4-yl)-2,3-dihydrofuro[3,2-c]pyridin-4-yl)amino)methyl)-5-fluoro-N-(3-methoxypropyl)benzamide], the Ki in assay [1] and in assay [2] was ≤ 3 nM in each case. Moreover, in assay [3], the “Ratio (PKA/ROCK2)” value is “*** (ratio≥10)”.
Take `Nc1nccc(-c2cnc(NCc3cc(C(=O)NC4CCOCC4)ccc3F)c3c2OCC3)n1` [Example 61, 3-(((7-(2-Aminopyrimidin-4-yl)-2,3-dihydrofuro[3,2-c]pyridin-4-yl)amino)methyl)-4-fluoro-N-(tetrahydro-2H-pyran-4-yl)benzamide]: the results for the Ki in assay [1] and in assay [2] were > 30 nM and 3 to 30 nM, respectively. Besides, the “Ratio (PKA/ROCK2)” value in assay [3] is on record as “*** (ratio≥10)”.
Turning to `COCCCNC(=O)c1ccc(F)c(CNc2ncc(-c3ccnc(N)n3)c3c2CCO3)c1` [Example 62, 3-(((7-(2-Aminopyrimidin-4-yl)-2,3-dihydrofuro[3,2-c]pyridin-4-yl)amino)methyl)-4-fluoro-N-(3-methoxypropyl)benzamide], the values for the Ki in assay [1] and in assay [2] were > 30 nM and 3 to 30 nM, respectively. In assay [3], the “Ratio (PKA/ROCK2)” value is listed as “*** (ratio≥10)”.
With `CNC(=O)c1cccc(CNc2ncc(-c3ccnc(N)n3)c3c2CCO3)n1` [Example 63, 6-(((7-(2-Aminopyrimidin-4-yl)-2,3-dihydrofuro[3,2-c]pyridin-4-yl)amino)methyl)-N-methylpicolinamide], the results for the Ki in assay [1] and in assay [2] were > 30 nM and 3 to 30 nM, respectively. For the same compound, the “Ratio (PKA/ROCK2)” value in assay [3] is listed as “*** (ratio≥10)”.
For the compound `COCCCC(=O)Nc1cccc(CNc2ncc(-c3ccnc(N)n3)c3c2CCO3)c1` [Example 64, N-(3-(((7-(2-aminopyrimidin-4-yl)-2,3-dihydrofuro[3,2-c]pyridin-4-yl)amino)methyl)phenyl)-4-methoxybutanamide], the Ki in assay [1] is 3 to 30 nM; in assay [2], ≤ 3 nM. In addition, the “Ratio (PKA/ROCK2)” value in assay [3] is “*** (ratio≥10)”.

The Ki is the equilibrium dissociation constant of an inhibitor or competing ligand from its target.
